Columns and labels:
[1] = system: bFGF-stimulated blood vessel formation in Matrigel; assay: Matrigel in vivo angiogenesis assay; set-up: species or system C57B1/6 mice; settings: intra-peritoneal daily 10 days
Method: The Matrigel™ in vivo assay was performed to determine the ability of test samples to inhibit blood vessel formation (antiangiogenic activity) and to establish their bioavailability in vivo.
Briefly, liquid Matrigel™ (Becton Dickinson, Bedford, Mass.) was maintained at 4° C. and mixed thoroughly for at least 3 hours with 1,500 ng/ml basic fibroblast growth factor (bFGF) (R&D Systems, Minneapolis, Minn.) used as the primary angiogenic stimulus. The mixture (0.5 ml) was injected subcutaneously into the ventral midline of C57B1/6 mice, and treatment with different test samples or saline solution was initiated the same day. Additional animals were also injected with Matrigel™ containing no bFGF to serve as baseline controls. The animals were treated daily for a 10 day period (intra-peritonealy, 0.2 ml of each dose). At day 11, animals were injected with FITC-dextran 20 min prior to euthanizing treated mice. Matrigel™ gels were removed along with underlying peritoneum and prepared for FITC-dextran detection by fluorimetry. The concentration of FITC-dextran in the gels was calculated from a known concentration of FITC-dextran using a standard curve. The FITC-dextran content of the gels from compound-treated animals and controls was expressed as a percent of the positive bFGF-treated controls after the baseline control of FITC-dextran levels were subtracted from all groups.

[2] = system: Endothelial cells; assay: Endothelial cell migration assay (VEGF, modified Boyden chamber); assay type: cell-based
Method: The endothelial cell migration assay was performed to determine the ability of test samples to inhibit the chemotaxic activity of vascular endothelial growth factor (VEGF;R/D System, MN) using a modified Boyden chamber (Transwell™, Corning/Costar). Briefly, polyvinylidene difluoride filters (PVDF) were coated with Pronectin F (Biosources, CA), a constituent of basement membrane barrier. Boyden chambers were assembled by adding VEGF to the culture media in the lower chamber (chemoattractant). Endothelial cells suspended in cultured media in the presence or the absence of the test samples were added to the upper chamber. The chambers were then incubated for a period of 4.5 hours at 37° C. At the end of the incubation period, the cells from both side of the PVDF membrane were fixed with 3.7% formaldehyde. Cells from the upper surface of the membrane were mechanically removed, and the cells remaining on the underside of the membrane were stained with crystal violet (0.5%; Sigma). Cells were then carefully rinsed and the dye fixed to the cells was quantified with a microplate reader ([…]) after its solubilization with a solution of 50% citric acid (0.1M) in water and 50% ethanol.

[3] = system: blood vessel formation in the vitelline membrane of chick embryo; assay: Embryonic Vascularization Test (EVT); assay type: in vivo
Method: The Embryonic Vascularization Test (EVT) was performed to determine the ability of test samples to inhibit the formation of new blood vessels (antiangiogenic activity).
The normal development of a chick embryo involves the formation of an external vascular system located in the vitelline membrane which carries nutrients from the vitellus (yolk) to the developing embryo. When placed onto the vitelline membrane, antiangiogenic substances can inhibit the blood vessel formation that occurs in the vitelline membrane. Briefly, methylcellulose discs (an inert solid and transparent matrix) containing different test samples were placed on the external border of the vascular perimeter of the vitelline membrane, where the angiogenic process occurs. Vascularization was assessed 24 hours after disc deposition, and results were expressed as the percent of embryos in which blood vessel formation was affected. The blood vessel formation was considered affected when its growing path was either deviated, or diminished or when there was no growth observed beyond the disc as compared to the negative control. The results are expressed as 0, +, and ++ where 0 is for a lower response than 25 percent of the eggs; + is for a response between 25 and 50 percent; and ++ is for an antiangiogenic response observed in more than 50 percent of the eggs.
According to the endothelial cell proliferation assay, the relative effectiveness of two compounds is compared by reference to the EC50 thereof. The EC50 is the concentration of compound at which the number of endothelial cells is reduced by 50% as compared to control. The efficacy of the test samples in EVT is established by the percent of eggs with altered angiogenesis at a given inhibitor dose of 0.6 mg of copper equivalent (see FIG. 6 for examples). A comparison of the antiangiogenic activity of the compounds of the present invention with divalent metal salts (CuCl2, MgCl2, ZnCl2, CoCl2) and uncoupled alpha-amino acids, alpha-imino acids, dipeptides, and nitrogenated molecules comprising a carboxylic acid group, such as creatine, is provided to illustrate that the formation of the amino acid-copper complex gives rise to complexes having antiangiogenic activity.

[4] = system: human dermal fibroblasts; assay: Fibroblast proliferation; assay type: cell-based; settings: 48 hours; free amino acids and Glu-Trp 2.5 mM, CuCl2 1.25 mM
Method: Endothelial and tumor cell proliferation assays were performed to determine the ability of test samples to inhibit endothelial cell proliferation (antiangiogenic activity), normal cell proliferation,and tumor cell proliferation.
Endothelial cells (Human umbilical vein endothelial cells (HUVEC), bovine aortic endothelial cells (BAEC)), skeletal muscle cells, human dermal fibroblasts (all from Clonetics, Walkersville, Md.) were respectively maintained in EBM-2, MDEM, SKGM and FGFM-2 complete media according to manufacturer's instructions. Tumor rat glioblastoma cell line (C6) was maintained in DMEM (Sigma, Oaksville, Ontario) supplemented with 10% fetal calf serum (FCS) and antibiotics in 5% CO2. Briefly, cells seeded in 96-well sterile tissue culture dishes were treated with increasing concentrations of different test samples for a period of 48 hours at 37° C. Cell number was then evaluated by a calorimetric assay using the cell proliferation reagent tetrazolium salt and the fluorimetric assay using DNA dye (Hoescht) according to the procedure established by the manufacturer (Boehringer Mannhein). The conversion of these tetrazolium salts into formazan occurs only in metabolically active cells. The percentage of cell inhibition was determined by comparison to untreated cells.

Substance: L-Asp Cu L-Asp [Compound 6]
- Matrigel in vivo % of inhibition ([1]; 0.14 mg/Kg equivalent copper): 27.7% of inhibition
- Matrigel in vivo % of inhibition ([1]; 1.14 mg/Kg equivalent copper): 22.6% of inhbition
- Matrigel in vivo % inhibition ([1]; 1.4 mg/Kg equivalent copper): 22.6%
- Cell migration activity (in words) [2]: important activity
- Migration % of inhibition ([2]; 1.25 mmole (equivalent copper), VEGF chemoattractant, 4.5 hours): 82% of inhibition
- Cell Migration (% inhibition) ([2]; copper complexes, concentration not given, VEGF, 4.5 hours): 82%
- EVT (% of inhibition) ([3]; 0.6 mg copper equivalent, percent of embryos with affected blood vessel formation, 24 hours after disc deposition): ±38% of inhibition
- EVT (% of inhibition) ([3]; activity at 0.6 mg equivalent Copper): + (+ between 25-50% of inhibition)
- EC50 [4]: 1.15 mM

Reference: patent US20030087830A1, “Low molecular weight components of cartilage, complexes of metals with amino acids, DI-peptides and analogs thereof; processes for preparation and therapeutic uses thereof” (priority 2001, published 2003)
